The structures appear in SMILES notation.

For the first assay, the target named is T1, MGL (Rattus norvegicus, UniProt Q8R431).
T1 construct: one g rat brain was homogenized using a Polytron homogenizer; from tissue; host or cells: rat brain homogenate
T1 sequence (Q8R431 1-303): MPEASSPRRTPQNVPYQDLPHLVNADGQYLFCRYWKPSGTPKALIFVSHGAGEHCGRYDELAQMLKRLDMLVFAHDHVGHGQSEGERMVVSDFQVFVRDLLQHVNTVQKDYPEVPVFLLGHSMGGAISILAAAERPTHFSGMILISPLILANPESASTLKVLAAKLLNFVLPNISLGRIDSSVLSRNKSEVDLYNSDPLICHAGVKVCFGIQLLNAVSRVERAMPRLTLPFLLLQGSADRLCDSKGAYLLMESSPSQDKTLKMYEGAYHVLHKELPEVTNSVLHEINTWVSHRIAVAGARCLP
Description: 2-AG accumulation assay in rat brain homogenate. The format is biochemical. To be noted: rat brain homogenate; compound 0.01 μM; 2-AG accumulation as percent of vehicle; read-out: Rat Brain 2AG % VehCntrl (%) @ 0.01 μM.
Consider `O=C(c1ccccc1)N1CCN(C2CN(C(=O)c3ccc(-c4cccc(C(F)(F)F)c4)cc3)C2)CC1` [Cpd 186, 1-(Phenylcarbonyl)-4-(1-{[3′-(trifluoromethyl)biphenyl-4-yl]carbonyl}azetidin-3-yl)piperazine], for which the 2-AG accumulation, % of vehicle control at 0.01 µM came out at 123%.

Staying with this assay, now noted: rat brain homogenate; compound 0.1 μM; 2-AG accumulation as percent of vehicle; read-out: Rat Brain 2AG % VehCntrl (%) @ 0.1 μM.
For `O=C(c1ccccc1)N1CCN(C2CN(C(=O)c3ccc(-c4cccc(C(F)(F)F)c4)cc3)C2)CC1` [Cpd 186, 1-(Phenylcarbonyl)-4-(1-{[3′-(trifluoromethyl)biphenyl-4-yl]carbonyl}azetidin-3-yl)piperazine], the 2-AG accumulation, % of vehicle control at 0.1 µM stood at 199%.

Still in this assay, the particulars now being: rat brain homogenate; compound 1 μM; 2-AG accumulation as percent of vehicle; read-out: Rat Brain 2AG % VehCntrl (%) @ 1 μM.
Turning to `O=C(c1ccccc1)N1CCN(C2CN(C(=O)c3ccc4c(ccn4-c4ncccn4)c3)C2)CC1` [Cpd 595, 5-({3-[4-(Phenylcarbonyl)piperazin-1-yl]azetidin-1-yl}carbonyl)-1-pyrimidin-2-yl-1H-indole], the 2-AG accumulation, % of vehicle control at 1 µM is 128%.
Turning to `O=C(c1ccc2nc(-c3cccc(C(F)(F)F)c3)oc2c1)N1CC(N2CCN(C(=O)c3cscn3)CC2)C1` [Cpd 1151, 6-({3-[4-(1,3-Thiazol-4-ylcarbonyl)piperazin-1-yl]azetidin-1-yl}carbonyl)-2-[3-(trifluoromethyl)phenyl]-1,3-benzoxazole], the 2-AG accumulation, % of vehicle control at 1 µM is 482%.
Take `O=C(c1ccc(C(F)(F)F)cc1)N1CCc2cc(C(=O)N3CC(N4CCN(C(=O)c5nccs5)CC4)C3)ccc2C1` [Cpd 907, 6-({3-[4-(1,3-Thiazol-2-ylcarbonyl)piperazin-1-yl]azetidin-1-yl}carbonyl)-2-{[4-(trifluoromethyl)phenyl]carbonyl}-1,2,3,4-tetrahydroisoquinoline]: the 2-AG accumulation, % of vehicle control at 1 µM came to 867%.
For `O=C(c1ccc2c(c1)ncn2-c1ccc(F)c(F)c1)N1CC(N2CCN(C(=O)c3nccs3)CC2)C1` [Cpd 1186], the 2-AG accumulation, % of vehicle control at 1 µM stood at 393%.
On the same count and under the same terms, next, `O=C(c1ccc2c(c1)CCN(S(=O)(=O)C1CCCCC1)C2)N1CC(N2CCN(C(=O)c3nccs3)CC2)C1` [Cpd 906]: 896%.
Regarding `O=C(c1ccccc1)N1CCN(C2CN(C(=O)c3sc4cc(C(F)(F)F)ccc4c3Cl)C2)CC1` [Cpd 336], the 2-AG accumulation, % of vehicle control at 1 µM stood at 223%.
Regarding `O=C(c1ccc(Sc2cccc(C(F)(F)F)c2)cc1)N1CC(N2CCN(C(=O)c3nccs3)CC2)C1` [Cpd 431], the 2-AG accumulation, % of vehicle control at 1 µM turned out to be 703%.
Consider `O=C(c1ccccc1)N1CCN(C2CN(C(=O)c3ccc(-c4cccc(C(F)(F)F)c4)cc3)C2)CC1` [Cpd 186, 1-(Phenylcarbonyl)-4-(1-{[3′-(trifluoromethyl)biphenyl-4-yl]carbonyl}azetidin-3-yl)piperazine], for which the 2-AG accumulation, % of vehicle control at 1 µM came to 260%.
Still for that read-out and setting: the same measure for `O=C(c1ccc2c(c1)CCN(S(=O)(=O)c1ccccc1)C2)N1CC(N2CCN(C(=O)c3nccs3)CC2)C1` [Cpd 927]: 850%.
For `O=C(c1ccccc1)N1CCN(C2CN(C(=O)c3ccc(-c4ccc(C(F)(F)F)s4)cc3)C2)CC1` [Cpd 581, 1-(Phenylcarbonyl)-4-[1-({4-[5-(trifluoromethyl)thiophen-2-yl]phenyl}carbonyl)azetidin-3-yl]piperazine], the 2-AG accumulation, % of vehicle control at 1 µM was 140%.

Staying with this assay, now noted: rat brain homogenate; compound 10 μM; 2-AG accumulation as percent of vehicle; read-out: Rat Brain 2AG % VehCntrl (%) @ 10 μM.
On to `Cc1ccc(F)cc1-c1ccc(C(=O)N2CC(N3CCN(C(=O)c4nccs4)CC3)C2)cc1` [Cpd 177, 1-{1-[(5′-Fluoro-2′-methylbiphenyl-4-yl)carbonyl]azetidin-3-yl}-4-(1,3-thiazol-2-ylcarbonyl)piperazine], for which the 2-AG accumulation, % of vehicle control at 10 µM was determined as 768%.
As to `O=C(CCc1ccc(Cl)c(Cl)c1)N1CC(N2CCN(C(=O)c3nccs3)CC2)C1` [Cpd 281, 1-{1-[3-(3,4-Dichlorophenyl)propanoyl]azetidin-3-yl}-4-(1,3-thiazol-2-ylcarbonyl)piperazine], the 2-AG accumulation, % of vehicle control at 10 µM came out at 201%.
Take `Cc1ccc(-c2nc(C)c(C(=O)N3CC(N4CCN(C(=O)c5nccs5)CC4)C3)s2)cc1` [Cpd 135, 1-(1-{[4-Methyl-2-(4-methylphenyl)-1,3-thiazol-5-yl]carbonyl}azetidin-3-yl)-4-(1,3-thiazol-2-ylcarbonyl)piperazine]: the 2-AG accumulation, % of vehicle control at 10 µM worked out at 592%.
Take `Cc1c(C(=O)N2CC(N3CCN(C(=O)c4ccccc4)CC3)C2)sc2ccc(Cl)cc12` [Cpd 120, 1-{1-[(5-Chloro-3-methyl-1-benzothiophen-2-yl)carbonyl]azetidin-3-yl}-4-(phenylcarbonyl)piperazine]: the 2-AG accumulation, % of vehicle control at 10 µM amounted to 483%.
`COc1ccc(-c2ccc(C(=O)N3CC(N4CCN(C(=O)c5nccs5)CC4)C3)cc2)cc1C=O` [Cpd 216, 4-Methoxy-4′-({3-[4-(1,3-thiazol-2-ylcarbonyl)piperazin-1-yl]azetidin-1-yl}carbonyl)biphenyl-3-carbaldehyde]: the 2-AG accumulation, % of vehicle control at 10 µM came out at 625%.
Consider `Cc1nc(-c2ccc(C(F)(F)F)cc2)sc1C(=O)N1CC(N2CCN(C(=O)c3nccs3)CC2)C1` [Cpd 136, 1-[1-({4-Methyl-2-[4-(trifluoromethyl)phenyl]-1,3-thiazol-5-yl}carbonyl)azetidin-3-yl]-4-(1,3-thiazol-2-ylcarbonyl)piperazine], for which the 2-AG accumulation, % of vehicle control at 10 µM stood at 612%.
On the same count and under the same terms, next, `O=C(c1cccc(-c2cccs2)c1)N1CC(N2CCN(C(=O)c3nccs3)CC2)C1` [Cpd 137, 1-(1,3-Thiazol-2-ylcarbonyl)-4-{1-[(3-thiophen-2-ylphenyl)carbonyl]azetidin-3-yl}piperazine]: 441%; `O=C(c1ccc(-c2ccc(F)cc2F)cc1)N1CC(N2CCN(C(=O)c3nccs3)CC2)C1` [Cpd 179, 1-{1-[(2′,4′-Difluorobiphenyl-4-yl)carbonyl]azetidin-3-yl}-4-(1,3-thiazol-2-ylcarbonyl)piperazine]: 910%.
As to `O=C(c1ccccc1)N1CCN(C2CN(C(=O)c3cc4ccc(-c5ccccc5)cc4s3)C2)CC1` [Cpd 342, 1-{1-[(6-Phenyl-1-benzothiophen-2-yl)carbonyl]azetidin-3-yl}-4-(phenylcarbonyl)piperazine], the 2-AG accumulation, % of vehicle control at 10 µM stood at 288%.
As to `O=C(c1ccccc1)N1CCN(C2CN(C(=O)c3ccc(Cc4ccccc4)s3)C2)CC1` [Cpd 321, 1-{1-[(5-Benzylthiophen-2-yl)carbonyl]azetidin-3-yl}-4-(phenylcarbonyl)piperazine], the 2-AG accumulation, % of vehicle control at 10 µM was 230%.
Consider `CC(C)(C)OC(=O)Nc1cccc(-c2ccc(C(=O)N3CC(N4CCN(C(=O)c5nccs5)CC4)C3)cc2)c1` [Cpd 220, tert-Butyl [4′-({3-[4-(1,3-thiazol-2-ylcarbonyl)piperazin-1-yl]azetidin-1-yl}carbonyl)biphenyl-3-yl]carbamate], for which the 2-AG accumulation, % of vehicle control at 10 µM was 993%.
Same read-out and setting: the same measure for `O=C(c1ccccc1)N1CCN(C2CN(C(=O)c3ccc(OCc4ccc5ccccc5c4)cc3)C2)CC1` [Cpd 380, 1-(1-{[4-(Naphthalen-2-ylmethoxy)phenyl]carbonyl}azetidin-3-yl)-4-(phenylcarbonyl)piperazine]: 773%; for `O=C(CCc1c(Cl)cccc1Cl)N1CC(N2CCN(C(=O)c3nccs3)CC2)C1` [Cpd 274, 1-{1-[3-(2,6-Dichlorophenyl)propanoyl]azetidin-3-yl}-4-(1,3-thiazol-2-ylcarbonyl)piperazine]: 876%; for `O=C(c1ccccc1)N1CCN(C2CN(C(=O)c3ccc(-c4cccc(C(F)(F)F)c4)cc3)C2)CC1` [Cpd 186, 1-(Phenylcarbonyl)-4-(1-{[3′-(trifluoromethyl)biphenyl-4-yl]carbonyl}azetidin-3-yl)piperazine]: 521%.
`N#CCc1cccc(-c2ccc(C(=O)N3CC(N4CCN(C(=O)c5nccs5)CC4)C3)cc2)c1` [Cpd 207, [4′-({3-[4-(1,3-Thiazol-2-ylcarbonyl)piperazin-1-yl]azetidin-1-yl}carbonyl)biphenyl-3-yl]acetonitrile]: the 2-AG accumulation, % of vehicle control at 10 µM is 402%.
With `O=Cc1cccc(-c2ccc(C(=O)N3CC(N4CCN(C(=O)c5nccs5)CC4)C3)cc2)c1` [Cpd 210, 4′-({3-[4-(1,3-Thiazol-2-ylcarbonyl)piperazin-1-yl]azetidin-1-yl}carbonyl)biphenyl-3-carbaldehyde], the 2-AG accumulation, % of vehicle control at 10 µM turned out to be 122%.
The same measure, in the same setting: the same measure for `COc1cc(F)c(F)cc1-c1ccc(C(=O)N2CC(N3CCN(C(=O)c4nccs4)CC3)C2)cc1` [Cpd 214, 1-{1-[(4′,5′-Difluoro-2′-methoxybiphenyl-4-yl)carbonyl]azetidin-3-yl}-4-(1,3-thiazol-2-ylcarbonyl)piperazine]: 769%.
Same read-out and setting: the same measure for `COc1cccc(-c2ccc(C(=O)N3CC(N4CCN(C(=O)c5nccs5)CC4)C3)cc2)c1` [Cpd 180, 1-{1-[(3′-Methoxybiphenyl-4-yl)carbonyl]azetidin-3-yl}-4-(1,3-thiazol-2-ylcarbonyl)piperazine]: 703%; for `CC(C)(C)OC(=O)N1CC[C@H](Oc2ccc(C(=O)N3CC(N4CCN(C(=O)c5ccccc5)CC4)C3)cc2)C1` [Cpd 434, tert-Butyl (3S)-3-[4-({3-[4-(phenylcarbonyl)piperazin-1-yl]azetidin-1-yl}carbonyl)phenoxy]pyrrolidine-1-carboxylate]: 737%; for `CN(C)S(=O)(=O)c1ccc(-c2ccc(C(=O)N3CC(N4CCN(C(=O)c5nccs5)CC4)C3)cc2)cc1` [Cpd 213, N,N-Dimethyl-4′-({3-[4-(1,3-thiazol-2-ylcarbonyl)piperazin-1-yl]azetidin-1-yl}carbonyl)biphenyl-4-sulfonamide]: 104%.
For `O=C(c1ccc(-c2cccc(O)c2)cc1)N1CC(N2CCN(C(=O)c3nccs3)CC2)C1` [Cpd 218, 4′-({3-[4-(1,3-Thiazol-2-ylcarbonyl)piperazin-1-yl]azetidin-1-yl}carbonyl)biphenyl-3-ol], the 2-AG accumulation, % of vehicle control at 10 µM was found to be 764%.
Still for that read-out and setting: the same measure for `O=C(/C=C/c1ccc(SC(F)(F)F)cc1)N1CC(N2CCN(C(=O)c3nccs3)CC2)C1` [Cpd 283]: 605%.

Source of the values: patent US8362000B2, “Azetidinyl diamides as monoacylglycerol lipase inhibitors” (Janssen Pharmaceutica NV, priority 2009, dated 2013).
